Assay results from patent publication US20170368082A1, “FORMULATIONS OF BRINCIDOFOVIR” (priority 2016, published 2017).
Marks after values point to notes of the source that are not given here.

Test: 28-day intravenous infusion toxicity study with 14-day recovery
Assay type: in vivo, Sprague-Dawley CD rats
Conditions: for Testicular germ cell depletion, severity: terminal sacrifice
Description: Sprague-Dawley CD® rats (15/sex/group) were administered 0 (2× Sodium Phosphate Buffer Solution), 1, 4 or 15 mg/kg/dose brincidofovir twice per week via 2-hour intravenous infusion on a total of 9 occasions over 29 days. The dose rate was 10 mL/kg/hr for all dose groups. At the end of the treatment phase, up to 10 animals/sex/group were euthanized and necropsied. The remaining animals (up to 5 animals/sex/group) were held for a 14-day recovery phase in order to determine progression or reversibility of any brincidofovir-related effects. Satellite animals (up to 3/sex/group) were similarly dosed and serial blood samples were collected from each animal on Days 1 and 29 for toxicokinetic analysis of brincidofovir and the brincidofovir metabolite (Cidofovir, CDV). Parameters evaluated during the study were: viability, clinical observations, ophthalmology, body weights, food consumption, clinical pathology (termination of dosing and end of recovery), organ weights, macroscopic observations and microscopic pathology.
The test/control item was administered via 2 hours intravenous infusion twice weekly for a total of 9 individual doses over 29 days. Test/control item administration continued through the day prior to terminal necropsy. Recovery animals were held for a 14 day observation period after the last dose.
Animals in extremely poor health or in a possible moribund condition were identified for further monitoring and possible euthanasia.
Observations were made immediately and 2 hours after the completion of dosing for any signs of poor health or toxic or pharmacologic effects (e.g., abnormalities in general condition, appearance, activity, behavior, respiration, etc.).
Blood obtained via the orbital sinus (retrobulbar venous plexus) under light isoflurane anesthesia was used to analyze hematology, coagulation and clinical chemistry parameters for up to 10 toxicity animals/sex/group at the termination of dosing and up to 5 recovery animals/sex/group at the end of recovery. Animals were fasted overnight prior to each blood collection interval.
Necropsy was performed on up to 10 toxicity study animals/sex/group after animals had been treated for 29 days and on up to 5 toxicity study animals/sex/group after a 14 day treatment-free recovery period. Animals were fasted overnight prior to necropsy. Necropsy schedules were established to ensure that examination of animals of both sexes from each group were performed at similar times of the day throughout the necropsy periods.
Complete macroscopic examinations were performed on all animals. The macroscopic examination included examination of the external surface and all orifices; the external surfaces of the brain and spinal cord; the organs and tissues of the cranial, thoracic, abdominal and pelvic cavities and neck; and the remainder of the carcass for the presence of macroscopic morphologic abnormalities.
The tissues listed below were obtained from all animals and preserved. In addition, slides of the indicated tissues were prepared and examined microscopically. Any abnormalities not noted during macroscopic examinations which were seen during histology processing were recorded.
After fixation, the tissues and organs from all animals were routinely processed, embedded in paraffin, cut at a microtome setting of 4-7 microns, mounted on glass slides, stained with hematoxylin and eosin and examined by light microscopy. The bones were decalcified in Decalcifier II™.

[1] = females (2F), 1 mg/kg/dose, 29 day period, 11 tissues examined
[2] = females (3F), 4 mg/kg/dose, 29 day period, 10 tissues examined
[3] = females (4F), 15 mg/kg/dose, 29 day period, 10 tissues examined
[4] = females (4F), 15 mg/kg/dose, following 14-day recovery period, 5 tissues examined
[5] = males (2M), 1 mg/kg/dose, 29 day period, 10 tissues examined
[6] = males (2M), 1 mg/kg/dose, following 14-day recovery period, 5 tissues examined
[7] = males (3M), 4 mg/kg/dose twice weekly, 29 day period, statistically significant
[8] = males (3M), 4 mg/kg/dose, 29 day period, 10 tissues examined
[9] = males (3M), 4 mg/kg/dose, following 14-day recovery period, 5 tissues examined
[10] = males (3M), 4 mg/kg/dose, following 14-day recovery period, statistically significant
[11] = males (4M), 15 mg/kg/dose twice weekly, 29 day period, statistically significant
[12] = males (4M), 15 mg/kg/dose, 29 day period, 10 tissues examined
[13] = males (4M), 15 mg/kg/dose, following 14-day recovery period, 5 tissues examined
[14] = males (4M), 15 mg/kg/dose, following 14-day recovery period, statistically significant

CCCCCCCCCCCCCCCCOCCCOP(=O)(O)CO[C@H](CO)Cn1ccc(N)nc1=O [Brincidofovir]
mortality (1, 4 or 15 mg/kg/dose): no brincidofovir-related mortalities | Clinical observations, dosing phase (4 and 15 mg/kg/dose, both sexes): intermittent clinical signs | No-observed-adverse-effect level (NOAEL) (females): 4 mg/kg/dose | Decrease in food consumption vs concurrent controls (to) (females 15 mg/kg/dose, Week 3): −9.8% | Intestinal tract findings: Total Animals Represented [1]: 0 | Skin findings: Total Animals Represented [1]: 0 | Bone marrow findings: Total Animals Represented (females (2F), 1 mg/kg/dose, following 14-day recovery period, 4 tissues examined): 0 | Intestinal tract findings: Total Animals Represented [2]: 9 | Skin findings: Total Animals Represented [2]: 0 | Small intestine: Necrosis, Epithelium, Crypts, Minimal (incidence) [2]: 9 | Bone marrow findings: Total Animals Represented (females (3F), 4 mg/kg/dose, following 14-day recovery period, 5 tissues examined): 0 | Intestinal tract findings: Total Animals Represented [3]: 9 | Large intestine: Necrosis, Epithelium, glands, Minimal (incidence) [3]: 4 | Skin findings: Total Animals Represented [3]: 10 | Skin: Atrophy, Sebaceous Glands, Marked (incidence) [3]: 2 | Skin: Atrophy, Sebaceous Glands, Moderate (incidence) [3]: 3 | Skin: Atrophy, Sebaceous Glands, Slight (incidence) [3]: 5 | Small intestine: Hyperplasia, Epithelium, Crypts, Minimal (incidence) [3]: 5 | Small intestine: Necrosis, Epithelium, Crypts, Minimal (incidence) [3]: 3 | Small intestine: Necrosis, Epithelium, Crypts, Moderate (incidence) [3]: 1 | Small intestine: Necrosis, Epithelium, Crypts, Slight (incidence) [3]: 5 | Bone marrow findings: Total Animals Represented [4]: 2 | Bone marrow: Cellularity, Decreased, Minimal (incidence) [4]: 2 | Incidence of bone marrow decreased cellularity after recovery (females, 15 mg/kg/dose): 2/5 | Intestinal tract findings: Total Animals Represented [5]: 0 | Male reproductive tract findings: Total Animals Represented [5]: 0 | Skin findings: Total Animals Represented [5]: 0 | Bone marrow findings: Total Animals Represented [6]: 0 | Male reproductive tract findings: Total Animals Represented [6]: 0 | Testes weight vs. body weight, % difference relative to controls (males (3M), 4 mg/kg/dose twice weekly, 29 day period): −3% | Testes absolute weight, % difference relative to controls [7]: −9^a % | Testes weight vs. brain weight, % difference relative to controls [7]: −9^a % | Intestinal tract findings: Total Animals Represented [8]: 9 | Male reproductive tract findings: Total Animals Represented [8]: 10 | Seminal Vesicles: Apoptosis, Epithelial, Minimal (incidence) [8]: 4 | Skin findings: Total Animals Represented [8]: 0 | Small intestine: Hyperplasia, Epithelium, Crypts, Minimal (incidence) [8]: 5 | Small intestine: Necrosis, Epithelium, Crypts, Minimal (incidence) [8]: 8 | Small intestine: Necrosis, Epithelium, Crypts, Slight (incidence) [8]: 1 | Testes: Depletion, Germ Cell, Minimal (incidence) [8]: 6 | Testes: Depletion, Germ Cell, Slight (incidence) [8]: 3 | Bone marrow findings: Total Animals Represented [9]: 0 | Male reproductive tract findings: Total Animals Represented [9]: 5 | Testes: Depletion, Germ Cell, Minimal (incidence) [9]: 1 | Testes: Depletion, Germ Cell, Slight (incidence) [9]: 4 | Testes absolute weight, % difference relative to controls [10]: −21^a % | Testes weight vs. body weight, % difference relative to controls [10]: −26^a % | Testes weight vs. brain weight, % difference relative to controls [10]: −18^a % | Epididymides weight vs. body weight, % difference relative to controls (males (4M), 15 mg/kg/dose twice weekly, 29 day period): −6% | Epididymides absolute weight, % difference relative to controls [11]: −14^a % | Epididymides weight vs. brain weight, % difference relative to controls [11]: −13^a % | Testes absolute weight, % difference relative to controls [11]: −24^a % | Testes weight vs. body weight, % difference relative to controls [11]: −16^a % | Testes weight vs. brain weight, % difference relative to controls [11]: −22^a % | Epididymides: Cell Debris, Luminal, Minimal (incidence) [12]: 9 | Intestinal tract findings: Total Animals Represented [12]: 10 | Large intestine: Necrosis, Epithelium, glands, Minimal (incidence) [12]: 9 | Male reproductive tract findings: Total Animals Represented [12]: 10 | Seminal Vesicles: Apoptosis, Epithelial, Minimal (incidence) [12]: 8 | Seminal Vesicles: Mitotic Figures, Epithelial, Minimal (incidence) [12]: 4 | Skin findings: Total Animals Represented [12]: 10 | Skin: Atrophy, Sebaceous Glands, Marked (incidence) [12]: 4 | Skin: Atrophy, Sebaceous Glands, Moderate (incidence) [12]: 3 | Skin: Atrophy, Sebaceous Glands, Slight (incidence) [12]: 3 | Small intestine: Hyperplasia, Epithelium, Crypts, Minimal (incidence) [12]: 2 | Small intestine: Necrosis, Epithelium, Crypts, Minimal (incidence) [12]: 2 | Small intestine: Necrosis, Epithelium, Crypts, Slight (incidence) [12]: 8 | Testes: Depletion, Germ Cell, Moderate (incidence) [12]: 5 | Testes: Depletion, Germ Cell, Slight (incidence) [12]: 5 | Bone marrow findings: Total Animals Represented [13]: 3 | Bone marrow: Cellularity, Decreased, Slight (incidence) [13]: 3 | Epididymides: Cell Debris, Luminal, Minimal (incidence) [13]: 5 | Epididymides: Sperm, Reduced, Luminal, Marked (incidence) [13]: 4 | Epididymides: Sperm, Reduced, Luminal, Severe (incidence) [13]: 1 | Male reproductive tract findings: Total Animals Represented [13]: 5 | Testes: Depletion, Germ Cell, Marked (incidence) [13]: 4 | Testes: Depletion, Germ Cell, Moderate (incidence) [13]: 1 | Testes absolute weight, % difference relative to controls [14]: −42^a % | Testes weight vs. body weight, % difference relative to controls [14]: −40^a % | Testes weight vs. brain weight, % difference relative to controls [14]: −41^a % | Sebaceous gland atrophy, severity (males and females 15 mg/kg/dose): slight to marked | Single cell necrosis of crypt epithelium in small intestine, severity (males and females ≧4 mg/kg/dose): minimal to moderate | Decrease in food consumption vs concurrent controls (to) (males ≧1 mg/kg/dose, Week 4): −16% | Testicular germ cell depletion, severity (males, 4 mg/kg/dose): minimal to slight | Incidence of bone marrow decreased cellularity after recovery (males, 15 mg/kg/dose): 3/5 | Testicular germ cell depletion, severity (males, 15 mg/kg/dose): slight to moderate | No-observed-adverse-effect level (NOAEL) (males, twice weekly 2-h IV infusion): 1 mg/kg/dose | Diarrhea (rat, in vivo): none of the animals in the present study experienced diarrhea | Effects on ophthalmology, body weights, hematology, coagulation, clinical chemistry, urinalysis (rat, in vivo): no brincidofovir-related effects | Transaminase elevations (rat, in vivo): No transaminase elevations were observed
